Test results reported in patent publication US7989008B2, “Cosmetic preparations designed to reduce unsightly cellulite” (Menarini Industrie Farmaceutiche Riunite S.R.L., priority 2007, dated 2011).

Test system: tissue affected by cellulite (surface temperature of the skin)
Experiment: Liquid-crystal thermography, indirect instrumental assessment of treatment efficacy
Assay type: in vivo, women
Details: after repeated treatment
Text: Liquid-crystal thermography was used to conduct an indirect instrumental assessment of the efficacy of the treatment. On the basis of the surface temperature, this technique distinguishes between normal adipose tissue and tissue affected by cellulite, in which the reduced blood flow causes progressive cooling of the skin, proportional to the severity of the cosmetic problem. After repeated treatment with compound (I), the difference in temperature between the normal skin area (unaffected by cellulite) and the affected area had reduced considerably, about 70% of the temperature reduction previously observed having been eliminated. The effects of treatment with compounds A and B were evaluated for comparison purposes.

Which “temperature difference between normal skin area and area affected by cellulite eliminated” value does the source give for `CC1(C)C(=O)NN=C1c1ccc(NC2=C(Cc3cccc(C#N)c3)C(=O)CCC2)c(F)c1F` [Compound A, 3-[2-[4-(4,4-dimethyl-5-oxo-4,5-dihydro-1-H-pyrazol-3-yl)-2,3-difluoro-phenylamine]-6-oxocyclohex-1-enylmethyl]-benzonitrile] here?
The value was ~50%.

For `CC1(C)C(=O)NN=C1c1ccc(NC2=C(Cc3ccc(F)cc3)C(=O)CCC2)cc1F` [Compound B, 5-{4-[2-(4-fluoro-benzyl)-3-oxo-cyclohex-1-enylamine]-2-fluoro-phenyl}-4,4-dimethyl-2,4-dihydro-pyrazol-3-one], which “temperature difference between normal skin area and area affected by cellulite eliminated” value is on record?
The value was ~50%.

Which “temperature difference between normal skin area and area affected by cellulite eliminated” value does the source give for `CC1(C)C(=O)NN=C1c1ccc(NC2=C(Cc3ccc(F)cc3)C(=O)CCC2)c(F)c1F` [Compound of formula (I), 5-{4-[2-(4-fluoro-benzyl)-3-oxo-cyclohex-1-enylamine]-2,3-difluoro-phenyl}-4,4-dimethyl-2,4-dihydropyrazol-3-one] here?
Its value is “about 70%”.
